Legend:
Type in all cases: functional
Set-up in all cases: scale not given: the % may be the effect or the level left
Rattus norvegicus [1] = assay: Antihyperglycemic activity against sucrose-challenged streptozotocin-induced fasted albino Sprague-Dawley rat assessed as reduction in blood glucose at 100 mg/kg, po administered 30 mins before sucrose challenge measured after 5 hrs post sucrose dose
Rattus norvegicus [2] = assay: Antihyperglycemic activity against sucrose-challenged streptozotocin-induced fasted albino Sprague-Dawley rat assessed as reduction in blood glucose at 100 mg/kg, po administered 30 mins before sucrose challenge measured after 24 hrs post sucrose dose
Rattus norvegicus [3] = assay: Antihyperglycemic activity against fasted sucrose-loaded albino rat model assessed as reduction in blood glucose at 100 mg/kg, po administered 30 mins before sucrose challenge measured after 5 hrs post sucrose dose
Rattus norvegicus [4] = assay: Antihyperglycemic activity against fasted sucrose-loaded albino rat model assessed as reduction in blood glucose at 100 mg/kg, po administered 30 mins before sucrose challenge measured after 24 hrs post sucrose dose

Row | Structure (SMILES) | Activity (Rattus norvegicus [1]) | Activity (Rattus norvegicus [2]) | Activity (Rattus norvegicus [3]) | Activity (Rattus norvegicus [4])
1 | COc1ccc(CC(=O)O[C@H]2CC[C@]3(C)[C@H]4CC=C5[C@@H]6[C@@H](C)[C@H](C)CC[C@]6(C)CC[C@@]5(C)[C@]4(C)CC[C@H]3C2(C)C)cc1 | 17.5% | 15.6% | – | –
2 | C[C@H]1[C@H](C)CC[C@]2(C)CC[C@]3(C)C(=CC[C@@H]4[C@@]5(C)CC/C(=N\N(C(=S)Nc6ccccc6)c6ccc([N+](=O)[O-])cc6[N+](=O)[O-])C(C)(C)[C@@H]5CC[C@]43C)[C@H]12 | – | – | 1.2% | 7.35%
3 | C[C@H]1[C@H](C)CC[C@]2(C)CC[C@]3(C)C(=CC[C@@H]4[C@@]5(C)CC[C@H](OC(=O)CCC(=O)O[C@H]6CC[C@]7(C)[C@H]8CC=C9[C@@H]%10[C@@H](C)[C@H](C)CC[C@]%10(C)CC[C@@]9(C)[C@]8(C)CC[C@H]7C6(C)C)C(C)(C)[C@@H]5CC[C@]43C)[C@H]12 | 24.3% | 15.6% | – | –
4 | C/C=C(\C)C(=O)O[C@H]1CC[C@]2(C)[C@H]3CC=C4[C@@H]5[C@@H](C)[C@H](C)CC[C@]5(C)CC[C@@]4(C)[C@]3(C)CC[C@H]2C1(C)C | 12.7% | 22.6% | – | –
5 | CN(C)C(=N)NC(=N)N [METFORMIN] | 23.5% | 26.5% | – | –
6 | C[C@H]1[C@H](C)CC[C@]2(C)CC[C@]3(C)C(=CC[C@@H]4[C@@]5(C)CC[C@H](OC(=O)CNC(=O)c6ccccc6)C(C)(C)[C@@H]5CC[C@]43C)[C@H]12 | 3.15% | 12.1% | – | –
7 | C[C@H]1[C@H](C)CC[C@]2(C)CC[C@]3(C)C(=CC[C@@H]4[C@@]5(C)CC[C@H](OC(=O)CCCC(=O)c6ccccc6)C(C)(C)[C@@H]5CC[C@]43C)[C@H]12 | 24% | 23.5% | – | –
8 | C[C@H]1[C@H](C)CC[C@]2(C)CC[C@]3(C)C(=CC[C@@H]4[C@@]5(C)CC[C@H](O)C(C)(C)[C@@H]5CC[C@]43C)[C@H]12 | 13.9% | 8.12% | – | –
9 | C[C@H]1[C@H](C)CC[C@]2(C)CC[C@]3(C)C(=CC[C@@H]4[C@@]5(C)CC[C@H](OC(=O)c6ccc(Cl)cc6)C(C)(C)[C@@H]5CC[C@]43C)[C@H]12 | 22.1% | 25.6% | – | –
10 | C[C@H]1[C@H](C)CC[C@]2(C)CC[C@]3(C)C(=CC[C@@H]4[C@@]5(C)CC[C@H](OC(=O)c6cccnc6)C(C)(C)[C@@H]5CC[C@]43C)[C@H]12 | 18.2% | 27.6% | – | –
11 | Cc1ccc(C)c(C(=O)O[C@H]2CC[C@]3(C)[C@H]4CC=C5[C@@H]6[C@@H](C)[C@H](C)CC[C@]6(C)CC[C@@]5(C)[C@]4(C)CC[C@H]3C2(C)C)c1 | 24.9% | 20.2% | – | –
12 | C[C@H]1[C@H](C)CC[C@]2(C)CC[C@]3(C)C(=CC[C@@H]4[C@@]5(C)CC[C@H](OC(=O)c6ccc7ccccc7n6)C(C)(C)[C@@H]5CC[C@]43C)[C@H]12 | 19.6% | 17.8% | – | –
13 | CC(=O)O[C@H]1CC[C@]2(C)[C@H]3CC=C4[C@@H]5[C@@H](C)[C@H](C)CC[C@]5(C)CC[C@@]4(C)[C@]3(C)CC[C@H]2C1(C)C | 18.4% | 17% | – | –
14 | C[C@H]1[C@H](C)CC[C@]2(C)CC[C@]3(C)C(=CC[C@@H]4[C@@]5(C)CC[C@H](OC(=O)c6ccccc6C(=O)O)C(C)(C)[C@@H]5CC[C@]43C)[C@H]12 | 11% | 16.5% | – | –
15 | C[C@H]1[C@H](C)CC[C@]2(C)CC[C@]3(C)C(=CC[C@@H]4[C@@]5(C)CC[C@H](OC(=O)c6ccc([N+](=O)[O-])cc6)C(C)(C)[C@@H]5CC[C@]43C)[C@H]12 | 13.8% | 27.6% | – | –
